From US10596115B2, “Pharmaceutical composition for the treatment of diminution of bone tissue” (Council of Scientific & Industrial Research, priority 2013, dated 2020)
Blank lines part the entries; values can stand above or below the compound they belong to. Where a SMILES comes first, the peptide text is derived from it. The star is where a group is joined. Cbz = O=C(OCc1ccccc1)*; OtBu = CC(C)(C)O*

Legend:
[1] = tested on: Mice Calvarial osteoblasts (MCOs); assay: Alkaline phosphatase (ALP) assay in mice calvarial osteoblasts; format: cell-based; conditions: for ALP production / ALP activity compared with control: osteoblast differentiation medium, 1 pM to 1 μM; for dose most effective in stimulating ALP activity: dose range 1 pM to 1 μM
Method: For each experiment, 1 to 2 day old […] were used to harvest 20 to 35 calvaria at room temperature (25° C.). Briefly, individual calvaria were surgically isolated from the skull, the sutures were segregated, and the adherent tissue material was cleaned by gentle scrapping. As described previously, the pooled calvarias were kept for repeated digestion (15 minutes/digestion) with 0.05% trypsin and 0.1% collagenase P to release the cells. First digestion was discarded and cells were collected from the next four digestions. These cells were cultured in a modified essential medium (a-MEM) containing 10% fetal calf serum (FCS) and 1% penicillin/streptomycin (complete growth medium). Cultures of MCOs were allowed to reach 80% confluence for the experiments.
For the measurement of ALP activity, MCOs at approximately 80% confluence were trypsinized, and 2×10^3 cells/well were seeded onto 96-well plates. […] At the end of incubation period, total ALP activity was measured using p-nitrophenylphosphate (PNPP) as substrate, and absorbance was read at 405 nm.

[2] = tested on: serum osteocalcin in OVx mice; assay: Bone turnover marker, serum osteocalcin EIA; format: in vivo; conditions: 60 days, vs OVx+vehicle
Text: Rat-MID™ Osteocalcin EIA (Immunodiagnostic, UK) performed using serum from treated and vehicle groups using manufacturer's protocol as provided in the kit.

Mouse bone marrow cells = assay: Osteoclast culture, real-time expression of TRAP and RANK; format: cell-based; conditions: bone marrow cultures with MCSF and RANKL, 6 days, vs control vehicle
Method: In vitro osteoclastogenesis was performed using standard protocol. Mouse bone marrow cells were flushed from femur using alpha-MEM. Cells were seeded in flask overnight in Osteoclast medium (alpha MEM, 10% FCS, antibiotic, EBSS, 10 ng/ml MCSF). […] The medium was replaced after every 48 hours. After 6 days of culture, the cells were washed with PBS and then fixed in 4% paraformaldehyde or used for RNA extraction using TRIZOL for analysis of TRAP, RANK mRNA levels by real-time PCR. Fixed cells were followed by TRAP staining using the standardized protocol.

[3] = tested on: Mice calverial osteoblast; assay: Apoptosis assay (Annexin V/PI, FACS) in serum deprived MCOs; format: cell-based; conditions: 10 nM, 24 h
Method: Annexin V/PI staining for fluorescence-activated cell sorting (FACS) analysis was carried out using Calbiochem Annexin V-FITC Apoptosis Detection Kit (Calbiochem, USA) according to manufacturer's instructions.

uterus of OVx mice = assay: Estrogenicity studies (uterine weight); format: in vivo; conditions: all doses
Method: The uterus of each mouse was weighed and then fixed in 4% paraformaldehyde. A middle segment of each uterus was dehydrated in ascending grades of isopropanol, cleared in xylene and sections of about 5 μm thickness was prepared. Haematoxylin and eosin staining was done of 5 μm transverse sections and representative images were captured. Leica Qwin-Semiautomatic Image Analysis software (Leica Microsystems GmbH) was used to measure total uterine area, luminal area and luminal epithelial height.

[4] = tested on: Mice primary osteoblast cells; assay: Cell proliferation assay (direct cell count and BrdU); format: cell-based; conditions: 24 h
Method: Mice primary osteoblast cells were plated at a density of 2.5×10^5 cells/ml/well in 12 well plates at 37° C. […] The cells were trypsinized and viable cells were counted with a hemocytometer using trypan blue dye exclusion. Cell counts were performed in duplicate and repeated in three cultures. […] Cell proliferation was determined using BrdU ELISA (from Calbiochem, Darmstadt, Germany) using manufacturer's instructions. For the last 3h of the 24 h stimulation, the, cells were trypsinized and 2000 cells/well were seeded in a-MEM supplemented with 10% fetal bovine serum, and the cells were pulsed with BrdU. Absorbance at dual wavelength of 450-540 nm was measured with a microplate reader.

[5] = tested on: Mice Calvarial osteoblasts (MCOs); assay: Quantitative real time PCR of osteogenic genes in MCOs; format: cell-based; conditions: 10 nM
Method: Cells were homogenized using 1 ml of TRIzol reagent (Invitrogen, Carlsbad, Calif., USA), and total RNA was extracted according to the manufacturer's protocol. cDNA was synthesized using RevertAid™ First Strand cDNA synthesis kit (#K1621 Fermentas, Canada) from 1 μg of total RNA. Quantitative real time PCR amplifications were performed in The LightCycler® 480 Real-Time PCR System (Roche Diagnostics, USA) using LightCycler SYBR Green (Roche Diagnostics, USA) according to the manufacturer's instruction. The sequences of primer sets for Smurf1, Smurf2, RunX2, BMP-2, alkaline phosphatase (ALP), osteocalcin (OCN), Collagen I (Coll) and GAPDH mRNAs, target sites on mRNAs and product sizes by PCR are shown in FIG. 6. The quantity of each sample was normalized using the CT (threshold cycle) value obtained for the GAPDH mRNA amplifications.

20 S proteasome = 20 S proteasome (Rattus norvegicus, UniProt P28075); assay: 20 S proteasome activity assay in calvarial osteoblast cells; conditions: for inhibition of 20 S proteasomal activity: calvarial osteoblast cells
[6] = tested on: Mice Calvarial osteoblasts (MCOs); assay: Mineralization assay (Alizarin red-S); format: cell-based; conditions: 10 nM, 21 days, vs control group
Method: Mineralization assay was carried out to assess the mineralizing ability and thus bone formation of osteoblasts cells. […] At the end of the experiment, the cells were washed with PBS and fixed with paraformaldehyde (4%) in PBS for 15 minutes. Alizarin red-S stain was used for staining mineralized nodules, followed by extraction of the stain using 10% acetic acid and 10% ammonium hydroxide for colorimetric quantification at 405 nm.

[7] = tested on: Ovariectomized (OVx) Mice; assay: In vivo efficacy of WFA on ovariectomized (OVx) mice, μCT; set-up: species or system Balb/c mice; conditions: doses 1, 5 and 10
Method: The intraperitoneal dose for iPTH (40 μg·kg^-1 for 3 days/week) used in this study as known anabolic agent. […] For dynamic histomorphometry measurements each animal was administered intraperitoneally with fluorochromes tetracycline (20 mg·kg^-1) on day 30 […] and calcein (20 mg·kg^-1) on day 60 (8 weeks) after the commencement of various treatments. After 8 weeks of treatment, all mice were euthanized and autopsied to collect bones (i.e., tibias and femurs) for measurement of bone parameter. […] BMCs were cultured in bone marrow differentiation medium to induce mineralization for 18 days. Mineralization was quantified as described. Alizarin red S stain was used for staining mineralized nodules, followed by extraction of the stain for quantification. […] The plasma samples were analyzed by HPLC according to reported method with slight modification. Sky Scan 1076 μCT scanner (Aartselaar, Belgium) was used to carryout μCT scanning of excised bones as described before. The bone samples were scanned at a resolution of 9 μm and reconstruction was done using the Sky Scan Nrecon software. The X-ray source was set at 50 kV and […], with a pixel size of 9 μm. A hundred projections were acquired over an angul arrange of 180°. […] Trabecular thickness (Tb.Th) and structure mode index (SMI) was calculated according to the method of Hildebrand and Ruegsegger. […]

[8] = tested on: drill-hole injury in femur of Sham and OVx Balb/c mice; assay: Fracture healing drill-hole study; format: in vivo
Text: Sixty adult Balb/c mice (18-20 g each) were taken and divided into six groups of […] for the study. Each group included 12 animals per group. […] Mice were left for 8 weeks for the OVx mice to develop osteopenia. After 8 weeks, drill-hole injury was created in both sham and OVx groups. In mid femur region the front skin was incised straight and longitudinally 1 cm in length under anesthetic condition. After splitting the muscle, periosteum was stripped to expose the femoral bone surface. A drill-hole injury was made, 1 cm above the knee joint by inserting a drill bit with a diameter of 0.1 mm in the anterior portion of the diaphysis of the bilateral femurs. […] Each animal received intraperitoneal administration of fluorochrome calcein (20 mg·kg^−1) 24 h before autopsy. After 21 days of treatment as described above, all mice were euthanized and autopsied to collect their femurs for the measurement of bone micro architectural parameters at the drill hole site. Bones were embedded in acrylic material and 50 μm sections were made using an Isomet BoneCutter (Buehler, Lake Bluff, Ill. USA) and photographs were taken under confocal microscope LSM 510 Meta, Carl Zeiss, USA) aided with appropriate filters. The intensity of calcein binding, which is an indicator of the amount of new mineral deposition, was calculated using Carl Zeiss A M 4.2 image-analysis software.

[9] = Mundy GR et al, 2005; cited from earlier work
Smads = conditions: Ito y et al, 2011; cited from earlier work

SMILES: CC1=C(CO)C(=O)O[C@@H]([C@@H](C)[C@H]2CC[C@H]3[C@@H]4C[C@H]5O[C@]56[C@@H](O)C=CC(=O)[C@]6(C)[C@H]4CC[C@]23C)C1 [WFA, Withaferin A]
ALP activity compared to Bortizomib ([1]; 10 nM, 48 h): ~3 fold
ALP production / ALP activity compared with control ([1]; 48 h): significantly increased ALP production
dose most effective in stimulating ALP activity [1]: 10 nM
serum osteocalcin (OCN) levels [2]: significant reduction in the levels of OCN
mRNA levels of TRAP and RANK (Mouse bone marrow cells): significantly reduced mRNA levels of TRAP and RANK
apoptotic cells (early and late) ([3]; serum deprived (0.5% FBS) MCOs): 3%
uterine weight (uterus of OVx mice): uterine weight comparable to OVx group
concentration that maximally stimulated MCO proliferation [4]: 10 nM
osteoblast proliferation (direct cell count and BrdU incorporation) ([4]; vs control vehicle set as 100): concentration dependently stimulated osteoblast proliferation
mRNA expression of collagen I [5]: stimulated mRNA expression of collagen I
expression of osteogenic genes RunX2, OCN and Col I ([5]; normalized to GAPDH): increased expression of RunX2, OCN and Col I
earliest time of inhibition of proteasomal 20 S subunit activity (20 S proteasome; 10 nM): 3 h
maximum inhibition of proteasomal 20 S subunit activity (20 S proteasome; 10 nM, at 6 h, compared with positive control): 40-50%
mineralization (Alizarin-S dye extraction) [6]: significant increase in mineralization
most effective dose (BV/TV, inter-dose comparison) [7]: 10 mg/kg/day
callus mineralization / bridging of defect ([8]; 5 mg kg-1 d-1, after day 11 post drilling): predominantly occupied mineralized callus, and the defect region was partially bridged
callus mineralization / bridging of defect ([8]; 10 mg kg-1 d-1, compared with 5 mg kg-1 d-1): more increased mineralized callus within the intra medulla region to be remodeled to completely bridge the defect
mineral deposition (intensity of calcein labeling in the drill hole) ([8]; 5 and 10 mg kg-1 d-1, 21 days, vs vehicle): increased mineral deposition
mineral deposition in OVx mice ([8]; OVx mice, 5 and 10 mg kg-1 d-1, vs OVx vehicle): increased mineral deposition in OVx mice

SMILES: CC[C@H](C)[C@H](NC(=O)[C@H]([C@@H](C)CC)N(C)C(C)=O)C(=O)N[C@H](C(=O)N[C@@H](CC(C)C)C(=O)[C@@]1(C)CO1)[C@@H](C)O [Epoxomicin]
Activity: bone volume and bone formation rate [9]: Increases bone

SMILES: CC[C@H](C)[C@H](NC(=O)OCc1ccccc1)C(=O)N[C@@H](CCC(=O)OC(C)(C)C)C(=O)N[C@@H](C)C(=O)N[C@H](C=O)CC(C)C [PSI] (Cbz-IE(OtBu)AL-aldehyde)
Activity: bone volume and bone formation rate [9]: Increases bone

inhibition of 20 S proteasomal activity (20 S proteasome): comparable to Bzb
SMILES: CC(C)C[C@H](NC(=O)[C@H](Cc1ccccc1)NC(=O)c1cnccn1)B(O)O [Bzb, Bortezomib, reference compound]
apoptosis of serum deprived MCOs ([3]; 0.5% FBS): comparable to standard control Bortizomib (Bzb)
mineralization (Alizarin-S dye extraction) [6]: comparable to Bzb treatment

SMILES: CC(=O)N[C@@H](CSC(=O)[C@]1([C@@H](O)C(C)C)NC(=O)[C@H](C)[C@@H]1O)C(=O)O [Lactacystin, reference compound]
Activity: activity of Smads (in vitro) (Smads): Increases
inhibition of 20 S proteasomal activity (20 S proteasome): significantly inhibits the 20 S proteasomal activity

SMILES: CC1=C(C)C(=O)O[C@@H]([C@](C)(O)[C@H]2CC[C@H]3[C@@H]4[C@@H]5O[C@@H]5[C@@]5(O)CC=CC(=O)[C@]5(C)[C@H]4CC[C@]23C)C1 [WNA, Withanolide A]
ALP production / ALP activity compared with control ([1]; 48 h): significantly increased ALP production
dose most effective in stimulating ALP activity [1]: 10 nM
mRNA expression of collagen I [5]: stimulated mRNA expression of collagen I

SMILES: CC1=C(C)C(=O)O[C@@H]([C@@H](C)[C@@]2(O)CC[C@H]3[C@@H]4[C@@H]5O[C@@H]5[C@@]5(O)CC=CC(=O)[C@]5(C)[C@H]4CC[C@@]32C)C1 [WN, Withanone]
ALP production / ALP activity compared with control ([1]; 48 h): did not stimulate ALP activity significantly
dose most effective in stimulating ALP activity [1]: 10 nM
mRNA expression of collagen I [5]: stimulated mRNA expression of collagen I
